This is an account of results in patent publication EP1056700B1, “MEDICINAL USES OF PHENYLALKANOLS AND DERIVATES” (ZingoTX Pty Ltd, priority 1997, dated 1999).

The nature of series [1]: Brine shrimp toxicity bioassay. Type of series: in vivo. The settings on record: Artemia salina (brine shrimp), in vivo; 24 hours, 2% DMSO. The text has this:
The brine shrimp assay procedure determines LC50 values of active compounds. Activities of a broad range of known active compounds are manifested as toxicity to brine shrimp (Artemia salina Leach). There are many applications of the assay including analysis of toxic substances, anaesthetics, morphine-like substances and cocarcinogenicity of phorbol esters.
The method for testing solvent toxicity used was basically that reported by J L McLaughlin in Methods of Plant Biochemistry (1991), vol. 6 (K Hostettman, ed.), Academic Press, London, 1-32. DMSO solutions of the substances to be tested were added directly to the vials containing the brine shrimp. As the concentration of DMSO that we wished to use was higher than the recommended 1% v/v testing of the toxicity of the DMSO was therefore necessary. The concentrations of DMSO tested on the shrimp, along with the results from the assay which was done in duplicate are listed below.
Brine shrimp toxicity was assayed, except for some minor modifications, according to the method of McLaughlin et al as reported in Brine Shrimp: A convenient bioassay for active plant constituents, B N Meyer, N R Ferrigni, J E Putnam, L B Jacobsen, D E Nichols and J L McLaughlin in Planta Medica (1982), 45, 31-34 and Crown gall tumours on potato discs and brine shrimp lethality: Two simple bioassays for higher plant screening and fractionation. J L McLaughlin. Methods of Plant Biochemistry (1991), vol. 6 (K Hostettman, ed.), Academic Press, London, 1-32. Ten shrimp were transferred to each of the vials and the volume adjusted to 4.9 mL. Each dose was performed in triplicate, including the control. In quick succession, the appropriate volume of additional DMSO for each dose, required to achieve a final concentration of 2%, was added before the appropriate volume of test solution. The vials were gently mixed and the time noted. After 24 hours, the number of survivors were counted and % mortality was determined. The test compounds were assayed at concentrations of 100 µM, 25 µM, 5 µM, 1 µM and 0.2 µM (and where appropriate concentrations of 0.04 µM and 0.008 µM).
The brine shrimp were able to survive without food in the vials over the 24 hour period and were therefore not fed.
The dose-response curves were constructed using the Sigmaplot computer program and the LC50 value was calculated from the intersection point of the curve and the 50 % mortality line. The LC50 values were expressed in both µM and µg/mL.

The subject of another series is Cyclo-oxygenase (COX). The series can be described thus: Cyclo-oxygenase assay in RBL 2H3 cells (PGD2 EIA). It counts as cell-based, rat. The settings on record: final concentration of 10 µM. How it is done:
Cyclo-oxygenase (COX) assay was performed with cells in culture prepared from rat basophilic leukemia (RBL) 2H3 cell lines. Cells were cultured in EMEM containing 10% fetal calf serum and antibiotic until cells reached confluence. Harvested cells were subsequently seeded on 24-well plates at 1 x 10^6 cells/ml then incubated at 37°C for 3 hours. Cells were washed twice with incubation buffer (1.5 ml) containing 5 mM Hepes, 140 mM NaCl, 5 mM KCl, 0.6 mM MgCl2, 1 mM CaCl2 and […]. Cells were then covered with 0.49 ml of buffer, followed by addition of samples/solvents (0.005 ml) and incubated at 37 °C for 5 min on an orbital shaker. Arachidonic acid (0.005 ml, containing 50% EtOH) was subsequently added, and the plate was incubated at similar conditions for a further 10 min. The supernatant (0.1 ml) was aliquoted for methoxime derivatisation of PGD2, which was carried out by heating the supernatant with methoxime solution (1:1) at 60 °C for 30 min according to the instructions provided with the kit. The resultant solution was diluted with EIA buffer and stored on ice for EIA, following the protocol provided with the kit.
Validation of COX enzyme activity was carried out using EIA in which the enzyme activity was characterised against various concentrations of AA and a time course of enzyme activity.
[…] Indomethacin was used as reference compound. The concentration of DMSO in the assay was maintained at 1.5%.

The next series deals with T1, Lipoxygenase (LP) (Rattus norvegicus, UniProt P12527).
T1 construct: cell-free enzyme (Wong et al, 1991) prepared from rat basophilic leukemia (RBL) 2H3 cell lines; endogenous in cells; host or cells: RBL 2H3 (rat basophilic leukemia), 15,000 g supernatant of cells disrupted by nitrogen cavitation
T1 sequence (P12527 1-673): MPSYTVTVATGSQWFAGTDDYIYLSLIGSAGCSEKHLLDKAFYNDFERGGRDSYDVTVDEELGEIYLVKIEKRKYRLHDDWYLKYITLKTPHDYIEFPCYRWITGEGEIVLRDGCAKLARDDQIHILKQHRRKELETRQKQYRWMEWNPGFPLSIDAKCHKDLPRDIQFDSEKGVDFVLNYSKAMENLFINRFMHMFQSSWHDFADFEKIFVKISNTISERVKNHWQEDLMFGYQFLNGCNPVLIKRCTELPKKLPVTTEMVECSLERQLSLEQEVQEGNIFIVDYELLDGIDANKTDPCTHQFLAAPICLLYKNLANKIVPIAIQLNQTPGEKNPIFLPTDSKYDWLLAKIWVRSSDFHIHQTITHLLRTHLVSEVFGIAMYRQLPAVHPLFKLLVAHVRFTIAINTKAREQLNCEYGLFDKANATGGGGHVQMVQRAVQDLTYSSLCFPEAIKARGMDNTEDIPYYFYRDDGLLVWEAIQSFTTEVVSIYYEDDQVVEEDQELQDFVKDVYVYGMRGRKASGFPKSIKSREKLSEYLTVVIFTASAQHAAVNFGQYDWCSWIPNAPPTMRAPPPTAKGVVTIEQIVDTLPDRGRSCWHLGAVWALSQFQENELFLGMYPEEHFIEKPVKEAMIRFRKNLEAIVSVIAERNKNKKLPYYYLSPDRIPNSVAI
Description: Lipoxygenase assay with cell-free enzyme from RBL 2H3 cells (EIA). It counts as biochemical. Particulars: final concentration of 10 µM. Summed up:
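Cell-free enzyme from the 15,000 g supernatant of nitrogen-cavitated RBL 2H3 cells, preincubated 5 min with compound at 10 µM final (1.5% DMSO) in Hepes pH 7. Reaction started with CaCl2, ATP, PAF and arachidonic acid and run 8 min at room temperature; product quantified by EIA.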

Where “and” joins values, the source holds several entries; their conditions need not be identical. Equal values may be shown once.

By LC50 is commonly meant the concentration that kills 50% of the test population. Read a low LC50 as a more lethal substance. In the case of `CCCCCCCCCC(O)CCc1ccc(O)c(OC)c1` (centres unmarked) [1-(4-hydroxy-3-methoxyphenyl)dodecan-3-ol], the LC50 at 24 h in series [1] is > 100 µM and > 31 µg/mL. Also, in the series with Cyclo-oxygenase (COX), the “Cyclooxygenase activity % activity” value stood at 9%. Further, the activity at 10 µM on Lipoxygenase (LP) is 31%.

With `CCCCCCCC(O)CCCCc1ccc(O)c(OC)c1` (centres unmarked) [1-(4-hydroxy-3-methoxyphenyl)dodecan-5-ol], in series [1], the LC50 at 24 h is 6.6 µM and 2 µg/mL. In the series with Cyclo-oxygenase (COX), the “Cyclooxygenase activity % activity” value is given as 12%. The activity at 10 µM at Lipoxygenase (LP) came out at 35%.

For `CCCCCCCC(O)CC(=O)c1ccc(O)c(OC)c1` (centres unmarked) [3-hydroxy-1-(4-hydroxy-3-methoxyphenyl)decan-1-one], the LC50 at 24 h in series [1] was 66 µM and 19 µg/mL. The “Cyclooxygenase activity % activity” value with Cyclo-oxygenase (COX) is listed as 123%. The activity at 10 µM on Lipoxygenase (LP) worked out at 175%.

As for `CCCCCCCC(=O)CC(O)CCc1ccc(O)c(OC)c1` (centres unmarked) [3-hydroxy-1-(4-hydroxy-3-methoxyphenyl)dodecan-5-one], the LC50 at 24 h in series [1] was 67 µM and 22 µg/mL. For the same compound, in the series with Cyclo-oxygenase (COX), the “Cyclooxygenase activity % activity” value was found to be 18%. On Lipoxygenase (LP), the activity at 10 µM was found to be 193%.

Take `CCCCCCCC(O)CC(=O)CCc1ccc2c(c1)OCO2` (centres unmarked) [5-hydroxy-1-(3,4-methylenedioxyphenyl)dodecan-3-one]: the LC50 at 24 h in series [1] was 3 µM and 0.96 µg/mL. Further, the “Cyclooxygenase activity % activity” value in the series on Cyclo-oxygenase (COX) is on record as 59%. Moreover, the activity at 10 µM at Lipoxygenase (LP) came to 107%.

In the case of `CCCCCC(O)CC(=O)CCc1ccc(O)c(OC)c1` (centres unmarked) [[6]-gingerol, 5-hydroxy-1-(4-hydroxy-3-methoxyphenyl)decan-3-one, reference compound], in series [1], the LC50 at 24 h was > 100 µM and > 29 µg/mL. For the same compound, the “Cyclooxygenase activity % activity” value with Cyclo-oxygenase (COX) came to 55%. Besides, the activity at 10 µM on Lipoxygenase (LP) stood at 202%.

`CCCCCCCC(O)CC(=O)C=Cc1ccc(O)c(OC)c1` (centres unmarked) [[8]-dehydrogingerol, 5-hydroxy-1-(4-hydroxy-3-methoxyphenyl)dodecan-1-ene-3-one, reference compound]: the LC50 at 24 h in series [1] was 41 µM and 13 µg/mL. Further, in the series with Cyclo-oxygenase (COX), the “Cyclooxygenase activity % activity” value worked out at 19%. Further, the activity at 10 µM on Lipoxygenase (LP) was determined as 37%.

On to `CCCCCCCC(O)CC(=O)CCc1ccc(O)cc1` (centres unmarked) [[8]-demethoxygingerol, 5-hydroxy-1-(4-hydroxyphenyl)dodecan-3-one], for which, in series [1], the LC50 at 24 h is 25 µM and 7.3 µg/mL. In the series with Cyclo-oxygenase (COX), the “Cyclooxygenase activity % activity” value was determined as 63%. Further, the activity at 10 µM at Lipoxygenase (LP) was determined as 450%.

Consider `CCCCCCCC(O)CC(O)CCc1ccc(O)c(OC)c1` (centres unmarked) [[8]-gingerdiol, 1-(4-hydroxy-3-methoxyphenyl)dodecane-3,5-diol, reference compound], for which, in the series with Cyclo-oxygenase (COX), the “Cyclooxygenase activity % activity” value is 10%. On Lipoxygenase (LP), the activity at 10 µM is 26%.

`CCCCCCCC(O)CC(=O)CCc1ccc(O)c(OC)c1` (centres unmarked) [[8]-gingerol, 5-hydroxy-1-(4-hydroxy-3-methoxyphenyl)dodecan-3-one, reference compound]: the LC50 at 24 h in series [1] is 64 µM and 21 µg/mL. In addition, the “Cyclooxygenase activity % activity” value in the series on Cyclo-oxygenase (COX) came out at 16%. Besides, the activity at 10 µM on Lipoxygenase (LP) came to 65.5%.

With `CCCCCCCC(O)CC(=O)CCc1ccc(OC)c(O)c1` (centres unmarked) [[8]-isogingerol, 5-hydroxy-1-(3-hydroxy-4-methoxyphenyl)dodecan-3-one, reference compound], in series [1], the LC50 at 24 h was 11 µM and 3.5 µg/mL. In the series on Cyclo-oxygenase (COX), the “Cyclooxygenase activity % activity” value turned out to be 23%. Besides, the activity at 10 µM on Lipoxygenase (LP) is 8%.

Turning to `CCCCCCCC(O)CC(=O)CCc1cccc(OC)c1O` (centres unmarked) [[8]-orthogingerol, 5-hydroxy-1-(2-hydroxy-3-methoxyphenyl)dodecan-3-one], the LC50 at 24 h in series [1] is 9.6 µM and 3.1 µg/mL. Besides, in the series with Cyclo-oxygenase (COX), the “Cyclooxygenase activity % activity” value was found to be 17%. Further, the activity at 10 µM at Lipoxygenase (LP) is 118%.
